Reference: patent publication US8507523B2, “Therapeutic tetrahydroisoquinoline-based compositions for cancer therapy” (priority 2006, dated 2013)
Counter-ions that a name gives are not always drawn. Like-named read-outs stand apart in the source and are kept apart here.

What was measured:
[1] = test system: C6 glioma; test: Dose response (percent survival) in C6 glioma cell cultures; type: cell-based, rat; conditions: C6 glioma cells, 4 days of treatment, percent survival
Description: (§1) 6,7-Dimethoxy-1-[4-(4-methoxypyridin-3-yl)benzyl]-1,2,3,4-tetrahydroisoquinolinehydrochloride (EDL-291) was synthesized as described herein in the laboratory of Dr. Duane D. Miller at The University of Tennessee Health Science Center. Briefly, the primary cultures of astrocytes and cultures of C6 glioma cell lines were handled identically with respect to treatment concentrations and manipulations of cells for the screening assays. The cells were trypsinized and transferred to 96-well plates at a cell density of 10^3 cells/mm^2 in the wells. The cells were grown overnight in 100 μL of 10% FCS BME in a 37° C. incubator containing a humid, 5% CO2 atmosphere.
(§2) EDL291 was dissolved completely to make a […] stock solution and diluted to produce a series of concentrations. A 20 μL aliquot of these initial solutions was added to 180 μl of 2% FCS BME to produce the test concentration. The vehicle solution was tested as a control. […] Immediately before treatment, the 10% FCS BME was removed from the cells and replaced with the 180 μl of the treatment medium. The cultured cells (normal primary cultures of rat brain astrocytes or C6 glioma purchased from ATCC) were incubated with test compound for 4 days. The cells were fixed with 4% paraformaldehyde, stained with 0.1% Cresylecth violet stain, and quantitated. The screening data was collected as four wells for each dose per compound (screening) or concentration (dose response curve). Also, the average growth of 8 wells with no treatment was used as a negative control for each plate (100% growth). The cells for dose response curves were grown in the same media and were handled in a similar manner as in the screening assays.
(§3) The cytotoxic character of each compound was reported as the percent survival, calculated as the average A560 for treated cells divided by A560 of untreated (100% control) cells, and expressed as a percentage. Values less than 100% indicate a cytostatic or cytotoxic effect. Dose response curves and EC50 values were attained via plots of percent survival vs. concentration.

[2] = test system: normal primary cultures of rat brain astrocytes; test: Dose response (percent survival) in primary cultures of astrocytes; type: cell-based; conditions: 4 days of treatment
Description: as §1, §2, §3

[3] = Rattus norvegicus, C6 glioma, 96 h
[4] = Rattus norvegicus, Astrocyte, 96 h

COc1cc2c(cc1OC)C(Cc1ccc(-c3cccnc3OC)cc1)NCC2 (stereo not drawn) [Compound 7, 6,7-Dimethoxy-1-[4-(2-methoxypyridin-3-yl)benzyl]-1,2,3,4-tetrahydroisoquinoline hydrochloride salt]
EC50 [1, 3]: 1.75 µM | EC50 [2, 4]: 50 to 100 µM

COc1cc2c(cc1OC)C(Cc1ccc(-c3cncnc3)cc1)N(C(=O)OC(C)(C)C)CC2 (stereo not drawn) [Compound 28, 6,7-Dimethoxy-1-(4-pyrimidin-5-ylbenzyl)-3,4-dihydro-1H-isoquinoline-2-carboxylic acid tert-butyl ester]
EC50 [1, 3]: 15.2 µM | EC50 μM Astrocyte [2]: No Effect

COc1cc2c(cc1OC)C(Cc1ccc(-c3cccnc3OC)cc1)N(C)CC2 (stereo not drawn) [Compound 8, 6,7-dimethoxy-1-[4-(2-methoxypyridin-3-yl)benzyl]-2-methyl-1,2,3,4-tetrahydro-isoquinoline]
EC50 ([1]; listed as drawing 26): 2.2 µM | EC50 [2, 4]: 27.3 µM

COc1cc2c(cc1OC)C(Cc1ccc(-c3ccncc3)cc1)N(C(=O)OC(C)(C)C)CC2 (stereo not drawn) [Compound 3, 6,7-Dimethoxy-1-(4-pyridin-4-yl-benzyl)-3,4-dihydro-1H-isoquinoline-2-carboxylic acid tert-butyl ester]
EC50 [1, 3]: 5.92 µM | EC50 [2, 4]: 18.4 µM

COc1cc2c(cc1OC)C(Cc1ccc(-c3ccccc3NS(C)(=O)=O)cc1)NCC2 (stereo not drawn) [Compound 15, N-[4′-(6,7-Dimethoxy-1,2,3,4-tetrahydroisoquinolin-1-ylmethyl)-biphenyl-2-yl]-methanesulfonamide hydrochloride salt]
EC50 [1, 3]: 8.9 µM | EC50 [2, 4]: 50 to 100 µM

COc1ncc(-c2ccc(CC3NCCc4cc(OC)c(OC)cc43)cc2)c(OC)n1 (stereo not drawn) [Compound 26, 1-[4-(2,4-Dimethoxypyrimidin-5-yl)benzyl]-6,7-dimethoxy-1,2,3,4-tetrahydroisoquinoline hydrochloride]
EC50 [1, 3]: 9.3 µM | EC50 [2, 4]: 34 µM

COc1cc2c(cc1OC)C(Cc1ccc(-c3cncnc3)cc1)NCC2.Cl (stereo not drawn) [Compound 29, 6,7-Dimethoxy-1-(4-pyrimidin-5-ylbenzyl)-1,2,3,4-tetrahydroisoquinoline hydrochloride]
EC50 [1, 3]: 39.4 µM | EC50 μM Astrocyte [2]: No Effect

COc1cc2c(cc1OC)C(Cc1ccc(-c3cccnc3OC)cc1)N(C(=O)OC(C)(C)C)CC2 (stereo not drawn) [Compound 6, 6,7-Dimethoxy-1-[4-(2-methoxypyridin-3-yl)benzyl]-3,4-dihydro-1H-isoquinoline-2-carboxylic acid tert-butyl ester]
EC50 [1, 3]: 4.3 µM | EC50 μM Astrocyte [2]: No Effect

COc1ncc(-c2ccc(CC3c4cc(OC)c(OC)cc4CCN3C(=O)OC(C)(C)C)cc2)c(OC)n1 (stereo not drawn) [Compound 25, 1-[4-(2,4-Dimethoxypyrimidin-5-yl)benzyl]-6,7-dimethoxy-3,4-dihydro-1H-isoquinoline-2-carboxylic acid tert-butyl ester]
EC50 [1, 3]: 6.8 µM | EC50 μM Astrocyte [2]: No Effect

COc1cc2c(cc1OC)C(Cc1ccc(-c3ccncc3OC)cc1)N(C(=O)OC(C)(C)C)CC2 (stereo not drawn) [Compound 11, 6,7-Dimethoxy-1-[4-(3-methoxypyridin-4-yl)benzyl]-3,4-dihydro-1H-isoquinoline-2-carboxylic acid tert-butyl ester]
EC50 [1, 3]: 4.4 µM | EC50 [2, 4]: 13.6 µM

COc1cc2c(cc1OC)C(Cc1ccc(-c3cccnc3Cl)cc1)NCC2 (stereo not drawn) [Compound 32, 1-[4-(2-Chloro-pyridin-3-yl)benzyl]-6,7-dimethoxy-1,2,3,4-tetrahydroisoquinoline hydrochloride]
EC50 [1, 3]: 2.7 µM | EC50 [2, 4]: 28.2 µM

COc1cc2c(cc1OC)C(Cc1ccc(-c3ccncc3)cc1)NCC2 (stereo not drawn) [Compound 4, 6,7-Dimethoxy-1-(4-pyridin-4-ylbenzyl)-1,2,3,4-tetrahydroisoquinoline hydrochloride salt]
EC50 [1, 3]: 17.7 µM | EC50 [2, 4]: 74.4 µM

COc1cc2c(cc1OC)C(Cc1ccc(-c3ccncc3OC)cc1)NCC2 (stereo not drawn) [Compound 12, 6,7-Dimethoxy-1-[4-(3-methoxypyridin-4-yl)benzyl]-1,2,3,4-tetrahydroisoquinoline hydrochloride salt]
EC50 [1, 3]: 6.9 µM | EC50 [2, 4]: 49.5 µM

COc1cc2c(cc1OC)C(Cc1ccc(-c3ccccc3NC(C)=O)cc1)NCC2.Cl (stereo not drawn) [Compound 18, N-[4′-(6,7-Dimethoxy-1,2,3,4-tetrahydroisoquinolin-1-ylmethyl)biphenyl-2-yl]acetamide hydrochloride salt]
EC50 [1, 3]: 22.4 µM | EC50 μM Astrocyte [2]: No Effect

COc1cc2c(cc1OC)C(Cc1ccc(-c3ccccc3NS(C)(=O)=O)cc1)N(C(=O)OC(C)(C)C)CC2 (stereo not drawn) [Compound 14, 1-(2′-Methanesulfonylaminobiphenyl-4-ylmethyl)-6,7-dimethoxy-3,4-dihydro-1H-isoquinoline-2-carboxylic acid tert-butyl ester]
EC50 [1, 3]: 6.2 µM | EC50 μM Astrocyte [2]: No Effect

COc1ccncc1-c1ccc(CC2c3cc4c(cc3CCN2C(=O)OC(C)(C)C)OCO4)cc1 (stereo not drawn) [Compound 43, 5-[4-(4-methoxypyridin-3-yl)benzyl]-7,8-dihydro-5H-[1,3]dioxolo[4,5-g]isoquinoline-6-carboxylic acid tert-butyl ester]
EC50 [1, 3]: 5.8 µM | EC50 [2, 4]: 12.4 µM

COc1cc2c(cc1OC)C(Cc1ccc(-c3ccccc3NC(C)=O)cc1)N(C(=O)OC(C)(C)C)CC2 (stereo not drawn) [Compound 17, 1-(2′-Acetylaminobiphenyl-4-ylmethyl)-6,7-dimethoxy-3,4-dihydro-1H-isoquinoline-2-carboxylic acid tert-butyl ester]
EC50 [1, 3]: 9.2 µM | EC50 μM Astrocyte [2]: No Effect

COc1cc2c(cc1OC)C(Cc1ccc(-c3cnccc3OC)cc1)N(C(=O)OC(C)(C)C)CC2 (stereo not drawn) [Compound 20, 6,7-Dimethoxy-1-[4-(4-methoxypyridin-3-yl)benzyl]-3,4-dihydro-1H-isoquinoline-2-carboxylic acid tert-butyl ester]
EC50 [1, 3]: 5.9 µM | EC50 [2, 4]: 12.2 µM

COc1cc2c(cc1OC)C(Cc1ccc(-c3cnccc3OC)cc1)N(C)CC2 (stereo not drawn) [Compound 23, 6,7-Dimethoxy-1-[4-(4-methoxypyridin-3-yl)benzyl]-2-methyl-1,2,3,4-tetrahydroisoquinoline hydrochloride]
EC50 [1, 3]: 3.3 µM | EC50 [2, 4]: 28.2 µM

COc1cc2c(cc1OC)C(Cc1ccc(-c3cccnc3Cl)cc1)N(C(=O)OC(C)(C)C)CC2 (stereo not drawn) [Compound 31, 1-[4-(2-Chloro-pyridin-3-yl)benzyl]-6,7-dimethoxy-3,4-dihydro-1H-isoquinoline-2-carboxylic acid tert-butyl ester]
EC50 [1, 3]: 3.5 µM | EC50 μM Astrocyte [2]: No Effect

Clc1ccncc1-c1ccc(CC2NCCc3cc4c(cc32)OCO4)cc1 (stereo not drawn) [Compound 42, 5-[4-(4-Chloropyridin-3-yl)benzyl]-5,6,7,8-tetrahydro-[1,3]dioxolo[4,5-g]isoquinoline dihydrochloride salt]
EC50 [1, 3]: 2.5 µM | EC50 [2, 4]: 81.5 µM

COc1ccncc1-c1ccc(CC2NCCc3cc4c(cc32)OCO4)cc1 (stereo not drawn) [Compound 45, 5-[4-(4-methoxypyridin-3-yl)benzyl]-5,6,7,8-tetrahydro-[1,3]dioxolo[4,5-g]isoquinoline dihydrochloride salt]
EC50 [1, 3]: 1.3 µM | EC50 [2, 4]: 8.3 µM

COc1cc2c(cc1OC)C(Cc1ccc(-c3cccnc3OC)cc1)N(C)CC2 (stereo not drawn) [Compound 9, 6,7-Dimethoxy-1-[4-(2-methoxypyridin-3-yl)benzyl]-2-methyl-1,2,3,4-tetrahydroisoquinolinehydrochloride]
EC50 ([1]; listed as drawing 27): 5.5 µM | EC50 ([2]; read-out: EC50 μM Astrocyte): 25.3 µM

CC(C)(C)OC(=O)N1CCc2cc3c(cc2C1Cc1ccc(-c2cnccc2Cl)cc1)OCO3 (stereo not drawn) [Compound 40, 5-[4-(4-Chloropyridin-3-yl)benzyl]-7,8-dihydro-5H-[1,3]dioxolo[4,5-g]isoquinoline-6-carboxylic acid tert-butyl ester]
EC50 [1, 3]: 6.3 µM | EC50 [2, 4]: 37.5 µM
